According to US9656962B2, “Ring-contracted morphinans and the use thereof” (Purdue Pharma L.P., priority 2013, dated 2017):

Assays:
Assay type in all cases: biochemical
μ-opioid receptor [1] = target: T1, μ-opioid receptor (Homo sapiens (Human), UniProt P35372); assay: μ-opioid receptor [35S]GTPγS functional assay, HEK-293 or CHO cells (Table 4); settings: for Emax: relative to DAMGO; for EC50: μ GTP
Description: (§1) μ-Opioid Receptor Functional Assay Procedures: [^35S]GTPγS functional assays were conducted using freshly thawed μ-receptor membranes prepared in-house from a cell line expressing recombinant μ opioid receptor in a HEK-293, CHO or U-2 OS cell background, or purchased from a commercial source (Perkin Elmer, Shelton, Conn.; or DiscovRx, Fremont, Calif.). Assay reactions were prepared by sequentially adding the following reagents to binding buffer (100 mM NaCl, 10 mM MgCl2, 20 mM HEPES, pH 7.4) on ice (final concentrations indicated): membrane protein (0.026 mg/mL), saponin ([…]), GDP ([…]) and [^35S]GTPγS (0.20 nM; Perkin Elmer, Shelton, Conn.). The prepared membrane solution (190 μl/well) was transferred to 96-shallow well polypropylene plates containing 10 μl of 20× concentrated stock solutions of the agonist [D-Ala^2, N-methyl-Phe^4 Gly-ol^5]-enkephalin (DAMGO) prepared in dimethyl sulfoxide (DMSO). Plates were incubated for 30 min at about 25° C. with shaking Reactions were terminated by rapid filtration onto 96-well Unifilter GF/B filter plates (Perkin Elmer, Shelton, Conn.) using a 96-well tissue harvester (Perkin Elmer, Shelton, Conn.) followed by three filtration washes with 200 μl of ice-cold wash buffer (10 mM NaH2PO4, 10 mM Na2HPO4, pH 7.4). Filter plates were subsequently dried at 50° C. for 2-3 hours. BetaScint scintillation cocktail (Perkin Elmer, Shelton, Conn.) was added (50 μl/well) and plates were counted using a Packard Top-Count for 1 min/well. Data were analyzed using the sigmoidal dose-response curve fitting functions in GraphPad PRISM v. 3.0, or an in-house function for non-linear, sigmoidal dose-response curve-fitting. [^35S]GTPγS functional assays can also be conducted using freshly thawed μ-receptor membranes prepared from a cell line expressing recombinant μ opioid receptor in a CHO-K1 cell background.
(§2) μ GTP Emax (%) is the maximal effect elicited by a compound relative to the effect elicited by DAMGO, a standard μ agonist.
In TABLE 4, activity response of certain Compounds of the Invention to the μ- and κ-opioid receptors was determined as described above for functional assays using HEK-293 or CHO cells.

μ-opioid receptor [2] = target: T1, μ-opioid receptor; assay: μ-opioid receptor [35S]GTPγS functional assay, U-2 OS cells (Table 5); settings: for Emax: relative to DAMGO; for EC50: μ GTP
Description: as §1, §2

κ-opioid receptor = κ-opioid receptor (Homo sapiens (Human), UniProt P41145); assay: κ-opioid receptor [35S]GTPγS functional assay, U-2 OS cells (Table 5); settings: for Emax: relative to U69,593; for EC50: κ GTP
Description: κ-Opioid Receptor Functional Assay Procedures: Functional [^35S]GTPγS binding assays were conducted as follows. κ opioid receptor membrane solution was prepared by sequentially adding final concentrations of 0.026 μg/μl κ membrane protein (in-house), 10 μg/mL saponin, 3 μM GDP and 0.20 nM [^35S]GTPγS to binding buffer (100 mM NaCl, 10 mM MgCl2, 20 mM HEPES, pH 7.4) on ice. The prepared membrane solution (190 μl/well) was transferred to 96-shallow well polypropylene plates containing 10 μl of 20× concentrated stock solutions of agonist prepared in DMSO. Plates were incubated for 30 min at a temperature of about 25° C. with shaking. Reactions were terminated by rapid filtration onto 96-well Unifilter GF/B filter plates (Perkin Elmer, Shelton, Conn.) using a 96-well tissue harvester (Packard) and followed by three filtration washes with 200 μl ice-cold binding buffer (10 mM NaH2PO4, 10 mM Na2HPO4, pH 7.4). Filter plates were subsequently dried at 50° C. for 2-3 hours. Fifty μl/well scintillation cocktail (Perkin Elmer, Shelton, Conn.) was added and plates were counted in a Packard Top-Count for 1 min/well.
κ GTP Emax (%) is the maximal effect elicited by a compound relative to the effect elicited by U69,593.
The following TABLE 5 provides results on the activity response of certain Compounds of the Invention at the μ- and κ-opioid receptors determined as described above using U-2 OS cells.

## O=C(NCc1ccc(O)cc1)[C@@H]1C[C@]23CCN(CC4CC4)[C@H](Cc4ccc(O)cc42)[C@]3(O)C1 [Compound 39, (2R,3aS,4R,9bS)-12-(cyclopropylmethyl)-3a,8-dihydroxy-N-(4-hydroxybenzyl)-1,2,3,3a,4,5-hexahydro-4,9b-(epimino-ethano)cyclopenta[a]naphthalene-2-carboxamide]
μ-opioid receptor [1]
  Emax: 15 ± 1.73%
  EC50: 0.0375 ± 0.0126 µM
μ-opioid receptor [2]
  Emax: 42 ± 1%
  EC50: 11.1 ± 0.28 nM
κ-opioid receptor
  Emax: 91.7 ± 1.86%
  EC50: 1.85 ± 0.097 nM

## COc1ccc2c(c1)C13CCN(CC4CC4)[C@H](C2)[C@]1(O)C[C@@H](N)C3 (stereo in doubt) [Compound 28, (2S,3aS,4R,9bS)-2-amino-12-(cyclopropylmethyl)-8-methoxy-1,2,3,3a,4,5-hexahydro-4,9b-(epiminoethano)cyclopenta[a]naphthalene-3a-ol]
μ-opioid receptor [1]
  Emax: 7.5%
μ-opioid receptor [1]; bound given in μM
  EC50: > 20 µM
μ-opioid receptor [2]
  Emax: 35.7 ± 5.49%
  EC50: 326 ± 77.9 nM
κ-opioid receptor
  Emax: 106.7 ± 0.88%
  EC50: 179 ± 16.4 nM

## O=C(NCCc1ccccc1)[C@H]1C[C@]23CCN(CC4CC4)[C@H](Cc4ccc(O)cc42)[C@]3(O)C1 [Compound 51, (2S,3aS,4R,9bS)-12-(cyclopropylmethyl)-3a,8-dihydroxy-N-phenethyl-1,2,3,3a,4,5-hexahydro-4,9b-(epiminoethano)cyclo-penta[a]naphthalene-2-carboxamide]
μ-opioid receptor [1]
  Emax: 43 ± 3.06%
  EC50: 0.00049 ± 4e-05 µM
μ-opioid receptor [2]
  Emax: 87.7 ± 1.2%
  EC50: 0.13 ± 0.015 nM
κ-opioid receptor
  Emax: 102 ± 2.31%
  EC50: 0.047 nM

## O=C(NCc1ccc(O)cc1)[C@H]1C[C@]23CCN(CC4CC4)[C@H](Cc4ccc(O)cc42)[C@]3(O)C1 [Compound 40, (2S,3aS,4R,9bS)-12-(cyclopropylmethyl)-3a,8-dihydroxy-N-(4-hydroxybenzyl)-1,2,3,3a,4,5-hexahydro-4,9b-(epiminoethano)cyclopenta[a]naphthalene-2-carboxamide]
μ-opioid receptor [1]
  Emax: 1%
μ-opioid receptor [1]; bound given in μM
  EC50: > 20 µM
μ-opioid receptor [2]
  Emax: 29.3 ± 1.33%
  EC50: 1.45 ± 0.068 nM
κ-opioid receptor
  Emax: 97.7 ± 1.86%
  EC50: 0.73 ± 0.07 nM

## O=C(NCc1ccc(Cl)cc1)[C@@H]1C[C@]23CCN(CC4CC4)[C@H](Cc4ccc(O)cc42)[C@]3(O)C1 [Compound 43, (2R,3aS,4R,9bS)-N-(4-chlorobenzyl)-12-(cyclopropylmethyl)-3a,8-dihydroxy-1,2,3,3a,4,5-hexahydro-4,9b-(epimino-ethano)cyclopenta[a]naphthalene-2-carboxamide]
μ-opioid receptor [1]
  Emax: 11 ± 0.82%
  EC50: 0.00835 ± 0.0018 µM
μ-opioid receptor [2]
  Emax: 41.3 ± 2.03%
  EC50: 4.55 ± 0.14 nM
κ-opioid receptor
  Emax: 102 ± 5.9%
  EC50: 0.67 ± 0.02 nM

## O=C(NCc1ccc(Cl)cc1Cl)[C@H]1C[C@]23CCN(CC4CC4)[C@H](Cc4ccc(O)cc42)[C@]3(O)C1 [Compound 45, (2S,3aS,4R,9bS)-12-(cyclopropylmethyl)-N-(2,4-dichlorobenzyl)-3a,8-dihydroxy-1,2,3,3a,4,5-hexahydro-4,9b-(epimino-ethano)cyclopenta[a]naphthalene-2-carboxamide]
μ-opioid receptor [1]
  Emax: 43.3 ± 4.84%
  EC50: 0.00038 ± 4.4e-05 µM
μ-opioid receptor [2]
  Emax: 87 ± 0.58%
  EC50: 0.14 ± 0.018 nM
κ-opioid receptor
  Emax: 100 ± 4.62%
  EC50: 0.018 nM

## NC(=O)CNC(=O)[C@@H]1C[C@]23CCN(CC4CC4)[C@H](Cc4ccc(O)cc42)[C@]3(O)C1 [Compound 64, (2R,3aS,4R,9bS)-N-(2-amino-2-oxoethyl)-12-(cyclopropylmethyl)-3a,8-dihydroxy-1,2,3,3a,4,5-hexahydro-4,9b-(epiminoethano)cyclopenta[a]naphthalene-2-carboxamide]
μ-opioid receptor [1]
  Emax: 3.5%
μ-opioid receptor [1]; bound given in μM
  EC50: > 20 µM
μ-opioid receptor [2]
  Emax: 48.7 ± 0.33%
  EC50: 6.96 ± 0.27 nM
κ-opioid receptor
  Emax: 101 ± 4.98%
  EC50: 3.51 ± 0.16 nM

## O=C(NCc1cc(F)cc(F)c1)[C@@H]1C[C@]23CCN(CC4CC4)[C@H](Cc4ccc(O)cc42)[C@]3(O)C1 [Compound 49, (2R,3aS,4R,9bS)-12-(cyclopropylmethyl)-N-(3,5-difluorobenzyl)-3a,8-dihydroxy-1,2,3,3a,4,5-hexahydro-4,9b-(epimino-ethano)cyclopenta[a]naphthalene-2-carboxamide]
μ-opioid receptor [1]
  Emax: 10.5 ± 0.29%
  EC50: 0.00617 ± 0.00198 µM
μ-opioid receptor [2]
  Emax: 42.3 ± 1.45%
  EC50: 3.73 ± 0.23 nM
κ-opioid receptor
  Emax: 108 ± 4.7%
  EC50: 0.82 ± 0.099 nM

## CN1CC[C@]23C[C@@H](C(N)=O)C[C@@]2(O)[C@H]1Cc1ccc(O)cc13 [Compound 77, (2R,3aS,4R,9bS)-3a,8-dihydroxy-12-methyl-1,2,3,3a,4,5-hexahydro-4,9b-(epiminoethano)cyclopenta[a]naphthalene-2-carboxamide]
μ-opioid receptor [1]
  Emax: 19.6 ± 5.65%
  EC50: 0.58 ± 0.131 µM
μ-opioid receptor [2]
  Emax: 85 ± 2.52%
  EC50: 389 ± 74 nM
κ-opioid receptor
  Emax: 65.3 ± 6.44%
  EC50: 1150 ± 221 nM

## CN1CC[C@]23C[C@H](C(N)=O)C[C@@]2(O)[C@H]1Cc1ccc(O)cc13 [Compound 78, (2S,3aS,4R,9bS)-3a,8-dihydroxy-12-methyl-1,2,3,3a,4,5-hexahydro-4,9b-(epiminoethano)cyclopenta-[a]naphthalene-2-carboxamide]
μ-opioid receptor [1]
  Emax: 27.4 ± 1.03%
  EC50: 0.308 ± 0.093 µM
μ-opioid receptor [2]
  Emax: 94.7 ± 2.4%
  EC50: 89.3 ± 14.6 nM
κ-opioid receptor
  Emax: 89.7 ± 4.84%
  EC50: 973 ± 136 nM

## COc1ccc2c(c1)[C@]13CCN(CC4CC4)[C@H](C2)[C@]1(O)C[C@H](C#N)C3 [Compound 25, (2R,3aS,4R,9bS)-12-(cyclopropylmethyl)-3a-hydroxy-8-methoxy-1,2,3,3a,4,5-hexahydro-4,9b-(epiminoethano)-cyclopenta[a]naphthalene-2-carbonitrile]
μ-opioid receptor [1]
  Emax: 12 ± 2.08%
  EC50: 0.616 ± 0.0409 µM
μ-opioid receptor [2]
  Emax: 54.3 ± 4.1%
  EC50: 228 ± 25.4 nM
κ-opioid receptor
  Emax: 107 ± 4.16%
  EC50: 234 ± 28.5 nM

## O=C(NCc1ccc(F)cc1)[C@@H]1C[C@]23CCN(CC4CC4)[C@H](Cc4ccc(O)cc42)[C@]3(O)C1 [Compound 48, (2R,3aS,4R,9bS)-12-(cyclopropylmethyl)-N-(4-fluorobenzyl)-3a,8-dihydroxy-1,2,3,3a,4,5-hexahydro-4,9b-(epimino-ethano)cyclopenta[a]naphthalene-2-carboxamide]
μ-opioid receptor [1]
  Emax: -1%
μ-opioid receptor [1]; bound given in μM
  EC50: > 20 µM
μ-opioid receptor [2]
  Emax: 40 ± 1.53%
  EC50: 3.12 ± 0.27 nM
κ-opioid receptor
  Emax: 106 ± 2.33%
  EC50: 1.46 ± 0.29 nM

## O=C(N[C@@H]1CC23CCN(CC4CC4)[C@H](Cc4ccc(O)cc42)[C@]3(O)C1)c1ccccc1 (stereo in doubt) [Compound 82, N-((2R,3aS,4R,9bS)-12-(cyclopropyl-methyl)-3a,8-dihydroxy-1,2,3,3a,4,5-hexahydro-4,9b-(epiminoethano)cyclo-penta[a]naphthalen-2-yl)benzamide]
μ-opioid receptor [1]
  Emax: 1%
μ-opioid receptor [1]; bound given in μM
  EC50: > 20 µM

## COc1ccc2c(c1)[C@]13CCN(CC4CC4)[C@H](C2)[C@]1(O)C[C@@H](C(=O)O)C3 [Compound 15, (2S,3aS,4R,9bS)-12-(cyclopropylmethyl)-3a-hydroxy-8-methoxy-1,2,3,3a,4,5-hexahydro-4,9b-(epiminoethano)-cyclopenta[a]naphthalene-2-carboxylic acid]
μ-opioid receptor [1]
  Emax: 7%
μ-opioid receptor [1]; bound given in μM
  EC50: > 20 µM
μ-opioid receptor [2]
  Emax: 31.6 ± 3.21%
  EC50: 343 ± 110 nM
κ-opioid receptor
  Emax: 79.7 ± 5.81%
  EC50: 2900 ± 82.3 nM

## O=C(NCc1cccnc1)[C@H]1C[C@]23CCN(CC4CC4)[C@H](Cc4ccc(O)cc42)[C@]3(O)C1 [Compound 92, (2S,3aS,4R,9bS)-12-(cyclopropylmethyl)-3a,8-dihydroxy-N-(pyridin-3-ylmethyl)-1,2,3,3a,4,5-hexahydro-4,9b-(epimino-ethano)cyclopenta[a]naphthalene-2-carboxamide]
μ-opioid receptor [1]
  Emax: -1%
μ-opioid receptor [1]; bound given in μM
  EC50: > 20 µM
